{"source": "patent US9920063B2", "about": "“Melampomagnolide B derivatives” (Board of Trustees of the University of Arkansas, priority 2013, dated 2018)", "note": "Where two headings read alike, the source gives them in different places.", "data": [{"smiles": "C=C1C(=O)O[C@H]2[C@H]1CC/C(COC(=O)c1cc3ccccc3[nH]1)=C\\CC[C@@]1(C)O[C@@H]21", "note": "[BS-1-28]", "values": [{"measurement": "CC50", "setting": "K-562", "value": "> 100", "unit": "µM"}, {"measurement": "Percent Growth", "setting": "K-562; K-562, Log10 Concentration −4.0", "value": "−24", "unit": "%"}, {"measurement": "Percent Growth", "setting": "K-562; K-562, Log10 Concentration −5.0", "value": "−1", "unit": "%"}, {"measurement": "Percent Growth", "setting": "K-562; K-562, Log10 Concentration −6.0", "value": 5, "unit": "%"}, {"measurement": "Percent Growth", "setting": "K-562; K-562, Log10 Concentration −7.0", "value": 98, "unit": "%"}, {"measurement": "Percent Growth", "setting": "K-562; K-562, Log10 Concentration −8.0", "value": 100, "unit": "%"}, {"measurement": "GI50", "setting": "K-562; K-562, NCI five dose", "value": 0.327, "unit": "µM"}, {"measurement": "TGI", "setting": "K-562; K-562, NCI five dose", "value": "5.79E−6"}, {"measurement": "CC50", "setting": "OVCAR-3", "value": 2.66, "unit": "µM"}, {"measurement": "Percent Growth", "setting": "OVCAR-3; OVCAR-3, Log10 Concentration −4.0", "value": "−95", "unit": "%"}, {"measurement": "Percent Growth", "setting": "OVCAR-3; OVCAR-3, Log10 Concentration −5.0", "value": "−92", "unit": "%"}, {"measurement": "Percent Growth", "setting": "OVCAR-3; OVCAR-3, Log10 Concentration −6.0", "value": "−15", "unit": "%"}, {"measurement": "Percent Growth", "setting": "OVCAR-3; OVCAR-3, Log10 Concentration −7.0", "value": 50, "unit": "%"}, {"measurement": "Percent Growth", "setting": "OVCAR-3; OVCAR-3, Log10 Concentration −8.0", "value": 19, "unit": "%"}, {"measurement": "TGI", "setting": "OVCAR-3; OVCAR-3, NCI five dose", "value": "5.92E−7"}, {"measurement": "CC50", "setting": "T-47D", "value": "> 100", "unit": "µM"}, {"measurement": "GI50", "setting": "T-47D", "value": "< 0.01", "unit": "µM"}, {"measurement": "Percent Growth", "setting": "T-47D; T-47D, Log10 Concentration −4.0", "value": "−33", "unit": "%"}, {"measurement": "Percent Growth", "setting": "T-47D; T-47D, Log10 Concentration −5.0", "value": "−43", "unit": "%"}, {"measurement": "Percent Growth", "setting": "T-47D; T-47D, Log10 Concentration −6.0", "value": 35, "unit": "%"}, {"measurement": "Percent Growth", "setting": "T-47D; T-47D, Log10 Concentration −7.0", "value": 40, "unit": "%"}, {"measurement": "Percent Growth", "setting": "T-47D; T-47D, Log10 Concentration −8.0", "value": "−2", "unit": "%"}, {"measurement": "GI50", "setting": "T-47D; T-47D, NCI five dose", "value": "< 0.01", "unit": "µM"}, {"measurement": "CC50", "setting": "M14", "value": 5.76, "unit": "µM"}, {"measurement": "Percent Growth", "setting": "M14; M14, Log10 Concentration −4.0", "value": "−92", "unit": "%"}, {"measurement": "Percent Growth", "setting": "M14; M14, Log10 Concentration −5.0", "value": "−80", "unit": "%"}, {"measurement": "Percent Growth", "setting": "M14; M14, Log10 Concentration −6.0", "value": 46, "unit": "%"}, {"measurement": "Percent Growth", "setting": "M14; M14, Log10 Concentration −7.0", "value": 87, "unit": "%"}, {"measurement": "Percent Growth", "setting": "M14; M14, Log10 Concentration −8.0", "value": 88, "unit": "%"}, {"measurement": "GI50", "setting": "M14; M14, NCI five dose", "value": 0.814, "unit": "µM"}, {"measurement": "TGI", "setting": "M14; M14, NCI five dose", "value": "2.32E−6"}, {"measurement": "CC50", "setting": "SF-295", "value": 12, "unit": "µM"}, {"measurement": "Percent Growth", "setting": "SF-295; SF-295, Log10 Concentration −4.0", "value": "−95", "unit": "%"}, {"measurement": "Percent Growth", "setting": "SF-295; SF-295, Log10 Concentration −5.0", "value": ".46%"}, {"measurement": "Percent Growth", "setting": "SF-295; SF-295, Log10 Concentration −6.0", "value": 79, "unit": "%"}, {"measurement": "Percent Growth", "setting": "SF-295; SF-295, Log10 Concentration −7.0", "value": 89, "unit": "%"}, {"measurement": "Percent Growth", "setting": "SF-295; SF-295, Log10 Concentration −8.0", "value": 85, "unit": "%"}, {"measurement": "GI50", "setting": "SF-295; SF-295, NCI five dose", "value": 1.71, "unit": "µM"}, {"measurement": "TGI", "setting": "SF-295; SF-295, NCI five dose", "value": "4.28E−6"}]}]}
